According to patent publication US9844541B2, “Methods of modulating follicle stimulating hormone activity” (Strasspharma LLC, priority 2012, dated 2017):

Assays:
[1] = Reproductive endocrine testing of patient treated with vismodegib (case study); type: in vivo, human; conditions: patient on vismodegib 150 mg daily, about six months
Source text: (§1) A nulliparous person with a known diagnosis of Gorlin syndrome (Basal cell carcinoma nevus syndrome: Online Mendelian Inheritance in Man #109400) presented with more than 100 discrete BCC papules on the upper trunk and head, and neck regions. They were diagnosed and treated for lymphoma in 1988, prior to the BCCNS diagnosis and received chemotherapy and radiation therapy to the mantle zone, followed by radical neck dissection. They have remained in remission and their therapy had no apparent effect on menstrual function. They experienced menarche and had regular menses at 30 to 35 day intervals until starting the current therapy. Medications included synthroid 0.15 mg for longstanding hypothyroidism.
(§2) Several of their BCC lesions, while not clinically large, appeared in this area of combined radiation and surgical sclerosis overlying the carotid sheath. Multidisciplinary consultation recommended against further surgery. They commenced therapy with vismodegib (Erivedge™ Genentech, Inc., San Francisco, Calif.) 150 mg daily. […] Shortly thereafter they underwent a reproductive endocrinology evaluation.
(§3) Results of reproductive endocrine testing were unique and novel (Table 1). […] elevated FSH and low estrogen level were indicative of a markedly diminished ovarian reserve. However, the presence of preantral follicles and the high AMH value indicated preservation of normal ovarian potential and possible reversal of effect following cessation of therapy.

[2] = tested on: BCC lesions (Gorlin syndrome); experiment: Clinical response of BCC lesions in patient treated with vismodegib (case study); type: in vivo, human; conditions: 150 mg daily, six months after commencing therapy
Source text: as §1, §2

[3] = Adverse effects and reproductive examination in patient treated with vismodegib (case study); type: in vivo, human; conditions: 150 mg daily
Source text: as §1, §2

[4] = tested on: follicle stimulating hormone (FSH) receptor (FSH-R); experiment: Conclusion from endocrine profile: effect on FSH receptor signaling; type: in vivo, human; conditions: concluded from the endocrine profile of one patient
Method: as §3
The endocrine profile of a patient who developed amenorrhea while taking vismodegib (Erivedge™) was determined. […] Secondary amenorrhea, […] of established menses, may result from a variety of conditions, including suppression of the pituitary release of FSH or its hypothalamic control via gonadotropin releasing hormone GnRH. This can be drug induced, but patients presenting in this manner typically have very low or non-detectable gonadotropin (FSH and LH) levels and low estrogen levels. Alternatively, patients with ovarian failure (follicle depletion or menopause) present with high gonadotropins, which may be induced by radiation and/or medication such as chemotherapy.
This led to the conclusion that the cause of amenorrhea in at least this patient treated with visomdegib was due to blockage of the follicle stimulating hormone (FSH) receptor (FSH-R) signaling.

[5] = oral therapy of BCC; cited from earlier work
[6] = shortly after six months of therapy

With `CS(=O)(=O)c1ccc(C(=O)Nc2ccc(Cl)c(-c3ccccn3)c2)c(Cl)c1` [vismodegib] the “Follicle stimulating hormone (FSH) level” value ([1]; follicular phase normal 2-8 IU/L) was 16.0 IU/L, the Progesterone level ([1]; follicular phase range 0.2-1.5) was 0.4 and the Estradiol level ([1]; follicular phase range 12.5-166 pg/ml) was 26.9 pg/mL. The “Anti-mulerian hormone (AMH) level” value ([1]; normal range <6.9) was 2.6, the “Leutinizing hormone (LH) level” value ([1]; ovulation phase range 14.0-95.6) was 25.3 and the “Clinical resolution of BCC lesions” value [2] was “near complete clinical resolution of all lesions”. For the same compound, the Side effects ([3]; approximately four months after onset of amenorrhea) was “hair loss, slight dysgeusia, and minor leg cramping”, the Menstrual function ([3]; one month after start) was “became amenorrheic” and the “Transvaginal ultrasonography of ovaries” value [3, 6] was “normal ovaries, bilaterally containing multiple pre-antral follicles”. The Vaginal exam findings [3, 6] was “moderate atrophic vaginal changes suggesting hypoestrogenism”, the “Effect on FSH action at FSH-R” value [4] was “blocked the action of FSH on the FSH-R” and the Major side effects [5] was “dysgeusia, alopecia, leg cramping, and gastrointestinal disturbances”.
